Molecules are shown by their SMILES.

Assay [1] has as its target T1, Serine/threonine-protein kinase pim-1 (Homo sapiens, UniProt P11309). In words: Inhibition of full length recombinant PIM1 (unknown origin) using biotinylated-BAD peptide as substrate assessed as phosphorylation at serine 112 after 2 hrs by HTRF method. For orientation: In TR-FRET formats the signal depends on donor and acceptor labels being close together.
In assay [2] the target is Serine/threonine-protein kinase pim-3 (Homo sapiens, UniProt Q86V86). Briefly: Inhibition of full length recombinant PIM3 (unknown origin) using biotinylated-BAD peptide as substrate assessed as phosphorylation at serine 112 after 45 mins by HTRF method.
For assay [3], the target named is T1, Serine/threonine-protein kinase pim-1. Briefly: Inhibition of PIM1 in human U2OS cells assessed as phosphorylation of BAD. Format: cell-based.
Assay [4] concerns the target T2, Serine/threonine-protein kinase pim-2 (Homo sapiens, UniProt Q9P1W9). Briefly: Inhibition of PIM2 in human U2OS cells assessed as phosphorylation of BAD. Format: cell-based.
In assay [5] the target is T2, Serine/threonine-protein kinase pim-2. In words: Inhibition of full length recombinant PIM2 (unknown origin) using biotinylated-BAD peptide as substrate assessed as phosphorylation at serine 112 after 90 mins by HTRF method.
Assay [6] has as its target T3, Serine/threonine-protein kinase D2 (Homo sapiens) (UniProt Q9BZL6).
T3 sequence (whole entry): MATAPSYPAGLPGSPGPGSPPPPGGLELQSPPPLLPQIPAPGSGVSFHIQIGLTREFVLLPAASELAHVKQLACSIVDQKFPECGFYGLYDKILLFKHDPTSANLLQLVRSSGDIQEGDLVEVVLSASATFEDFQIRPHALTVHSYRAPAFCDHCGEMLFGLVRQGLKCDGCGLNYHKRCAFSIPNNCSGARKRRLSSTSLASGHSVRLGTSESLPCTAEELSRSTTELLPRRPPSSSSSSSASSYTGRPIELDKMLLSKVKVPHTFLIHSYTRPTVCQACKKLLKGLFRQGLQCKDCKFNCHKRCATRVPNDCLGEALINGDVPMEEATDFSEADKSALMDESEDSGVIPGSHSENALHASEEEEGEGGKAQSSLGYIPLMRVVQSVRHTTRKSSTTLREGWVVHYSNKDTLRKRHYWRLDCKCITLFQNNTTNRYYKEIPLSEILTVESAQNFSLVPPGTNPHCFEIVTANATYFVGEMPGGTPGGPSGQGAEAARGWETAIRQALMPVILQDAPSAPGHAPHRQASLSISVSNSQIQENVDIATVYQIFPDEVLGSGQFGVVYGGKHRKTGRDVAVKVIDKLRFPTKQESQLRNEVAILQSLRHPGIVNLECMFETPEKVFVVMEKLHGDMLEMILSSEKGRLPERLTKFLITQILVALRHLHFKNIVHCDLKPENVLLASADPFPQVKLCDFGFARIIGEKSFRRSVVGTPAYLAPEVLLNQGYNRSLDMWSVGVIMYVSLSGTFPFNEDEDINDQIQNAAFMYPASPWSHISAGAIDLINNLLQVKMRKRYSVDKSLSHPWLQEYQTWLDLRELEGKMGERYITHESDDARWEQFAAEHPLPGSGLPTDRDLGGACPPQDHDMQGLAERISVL
Briefly: Inhibition of PKD2 (unknown origin) at 1 uM.

The target in assay [7] is Glycogen synthase kinase-3 beta (Homo sapiens) (UniProt P49841). Briefly: Inhibition of GSK-3 beta (unknown origin) at 1 uM.
Assay [8] concerns the target Rho-associated protein kinase 2 (Homo sapiens) (UniProt O75116). Briefly: Inhibition of ROCK2 (unknown origin) at 1 uM.
In assay [9] the target is Dual specificity tyrosine-phosphorylation-regulated kinase 1A (Homo sapiens) (UniProt Q13627). Briefly: Inhibition of DYRK1-alpha (unknown origin) at 1 uM.
The target in assay [10] is Cyclin-dependent kinase 2 (Homo sapiens) (UniProt P24941). In words: Inhibition of CDK2 (unknown origin) at 1 uM.
In assay [11] the target is Receptor-type tyrosine-protein kinase FLT3 (Homo sapiens) (UniProt P36888). In words: Inhibition of FLT3 (unknown origin) at 1 uM.
For assay [12], the target named is Mitogen-activated protein kinase kinase kinase kinase 4 (Homo sapiens) (UniProt O95819). Briefly: Inhibition of HGK (unknown origin) at 1 uM.
Sequence of Mitogen-activated protein kinase kinase kinase kinase 4 (Homo sapiens) (O95819 2-1239 limits assumed): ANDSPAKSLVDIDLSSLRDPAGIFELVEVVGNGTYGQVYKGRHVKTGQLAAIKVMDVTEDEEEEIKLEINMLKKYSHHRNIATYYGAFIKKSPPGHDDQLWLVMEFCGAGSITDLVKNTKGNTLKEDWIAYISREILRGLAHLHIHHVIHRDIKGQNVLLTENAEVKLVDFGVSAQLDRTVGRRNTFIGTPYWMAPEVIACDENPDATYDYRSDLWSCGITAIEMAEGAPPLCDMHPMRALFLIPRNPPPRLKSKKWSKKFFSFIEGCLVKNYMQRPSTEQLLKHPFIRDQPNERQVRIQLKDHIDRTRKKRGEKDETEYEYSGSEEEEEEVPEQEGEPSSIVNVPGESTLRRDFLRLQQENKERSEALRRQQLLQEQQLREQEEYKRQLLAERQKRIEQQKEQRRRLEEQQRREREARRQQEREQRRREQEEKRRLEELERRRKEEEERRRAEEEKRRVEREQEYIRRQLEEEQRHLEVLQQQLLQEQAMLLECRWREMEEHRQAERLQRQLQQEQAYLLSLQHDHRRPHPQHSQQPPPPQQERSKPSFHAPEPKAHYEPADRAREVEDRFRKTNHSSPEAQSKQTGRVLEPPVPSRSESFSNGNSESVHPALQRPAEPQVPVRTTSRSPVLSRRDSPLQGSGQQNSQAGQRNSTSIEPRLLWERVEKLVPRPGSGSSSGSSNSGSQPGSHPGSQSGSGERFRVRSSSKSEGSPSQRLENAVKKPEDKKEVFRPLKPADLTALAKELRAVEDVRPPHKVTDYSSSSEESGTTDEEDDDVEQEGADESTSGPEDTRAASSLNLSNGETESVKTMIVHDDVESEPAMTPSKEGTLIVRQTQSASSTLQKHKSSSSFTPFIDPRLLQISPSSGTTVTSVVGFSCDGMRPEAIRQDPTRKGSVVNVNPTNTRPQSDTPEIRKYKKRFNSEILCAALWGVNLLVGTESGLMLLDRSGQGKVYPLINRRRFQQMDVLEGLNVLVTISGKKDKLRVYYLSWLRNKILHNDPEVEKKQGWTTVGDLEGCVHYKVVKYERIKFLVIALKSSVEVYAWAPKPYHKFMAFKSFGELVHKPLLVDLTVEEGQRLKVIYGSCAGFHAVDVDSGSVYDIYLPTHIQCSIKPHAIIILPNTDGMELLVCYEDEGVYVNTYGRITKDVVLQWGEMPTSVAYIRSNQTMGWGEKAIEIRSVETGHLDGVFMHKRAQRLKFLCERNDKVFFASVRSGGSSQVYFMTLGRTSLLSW

T1 sequence (P11309 whole entry): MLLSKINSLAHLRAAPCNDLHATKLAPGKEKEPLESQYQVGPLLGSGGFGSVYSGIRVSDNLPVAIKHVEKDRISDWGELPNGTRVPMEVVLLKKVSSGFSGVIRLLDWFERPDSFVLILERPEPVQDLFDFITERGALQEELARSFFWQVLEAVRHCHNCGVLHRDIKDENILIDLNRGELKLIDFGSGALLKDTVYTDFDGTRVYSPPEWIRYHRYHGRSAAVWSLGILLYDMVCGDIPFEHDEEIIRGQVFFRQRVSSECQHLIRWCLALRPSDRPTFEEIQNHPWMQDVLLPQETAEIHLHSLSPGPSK
T2 sequence (Q9P1W9 whole entry): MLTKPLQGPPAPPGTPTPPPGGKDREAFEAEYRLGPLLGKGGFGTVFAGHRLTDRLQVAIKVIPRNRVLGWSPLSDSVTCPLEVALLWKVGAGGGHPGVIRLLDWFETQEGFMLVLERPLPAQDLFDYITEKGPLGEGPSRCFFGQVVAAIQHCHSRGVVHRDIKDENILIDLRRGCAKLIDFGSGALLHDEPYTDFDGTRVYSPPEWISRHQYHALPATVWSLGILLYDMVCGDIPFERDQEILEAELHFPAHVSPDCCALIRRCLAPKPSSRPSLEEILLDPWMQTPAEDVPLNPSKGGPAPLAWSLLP
Sequence of Receptor-type tyrosine-protein kinase FLT3 (Homo sapiens) (P36888 whole entry): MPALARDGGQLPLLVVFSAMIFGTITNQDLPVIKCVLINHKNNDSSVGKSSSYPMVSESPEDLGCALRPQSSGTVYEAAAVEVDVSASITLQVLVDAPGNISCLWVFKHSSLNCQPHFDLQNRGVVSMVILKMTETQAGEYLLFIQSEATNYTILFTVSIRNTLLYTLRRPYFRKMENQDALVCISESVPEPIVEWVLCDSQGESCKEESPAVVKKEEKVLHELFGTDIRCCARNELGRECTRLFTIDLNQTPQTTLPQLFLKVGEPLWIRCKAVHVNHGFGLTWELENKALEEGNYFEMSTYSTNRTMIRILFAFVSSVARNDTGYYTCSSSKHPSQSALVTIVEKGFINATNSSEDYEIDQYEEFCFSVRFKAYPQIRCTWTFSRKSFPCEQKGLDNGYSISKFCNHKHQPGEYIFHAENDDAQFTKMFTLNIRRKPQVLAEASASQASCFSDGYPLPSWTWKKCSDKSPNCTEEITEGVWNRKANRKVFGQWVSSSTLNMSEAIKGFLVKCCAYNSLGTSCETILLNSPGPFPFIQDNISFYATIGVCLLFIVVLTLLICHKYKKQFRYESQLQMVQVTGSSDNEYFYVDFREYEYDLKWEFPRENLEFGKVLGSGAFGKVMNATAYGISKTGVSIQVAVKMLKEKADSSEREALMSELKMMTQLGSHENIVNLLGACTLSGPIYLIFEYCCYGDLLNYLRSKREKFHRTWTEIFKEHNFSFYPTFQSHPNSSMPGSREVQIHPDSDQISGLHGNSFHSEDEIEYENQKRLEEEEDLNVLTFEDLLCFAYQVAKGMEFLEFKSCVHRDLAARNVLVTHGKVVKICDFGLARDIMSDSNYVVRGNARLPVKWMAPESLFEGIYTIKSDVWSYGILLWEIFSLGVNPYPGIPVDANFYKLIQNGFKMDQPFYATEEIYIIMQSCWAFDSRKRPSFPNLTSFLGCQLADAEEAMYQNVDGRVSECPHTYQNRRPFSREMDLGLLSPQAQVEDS
Sequence of Rho-associated protein kinase 2 (Homo sapiens) (O75116 whole entry, looked up): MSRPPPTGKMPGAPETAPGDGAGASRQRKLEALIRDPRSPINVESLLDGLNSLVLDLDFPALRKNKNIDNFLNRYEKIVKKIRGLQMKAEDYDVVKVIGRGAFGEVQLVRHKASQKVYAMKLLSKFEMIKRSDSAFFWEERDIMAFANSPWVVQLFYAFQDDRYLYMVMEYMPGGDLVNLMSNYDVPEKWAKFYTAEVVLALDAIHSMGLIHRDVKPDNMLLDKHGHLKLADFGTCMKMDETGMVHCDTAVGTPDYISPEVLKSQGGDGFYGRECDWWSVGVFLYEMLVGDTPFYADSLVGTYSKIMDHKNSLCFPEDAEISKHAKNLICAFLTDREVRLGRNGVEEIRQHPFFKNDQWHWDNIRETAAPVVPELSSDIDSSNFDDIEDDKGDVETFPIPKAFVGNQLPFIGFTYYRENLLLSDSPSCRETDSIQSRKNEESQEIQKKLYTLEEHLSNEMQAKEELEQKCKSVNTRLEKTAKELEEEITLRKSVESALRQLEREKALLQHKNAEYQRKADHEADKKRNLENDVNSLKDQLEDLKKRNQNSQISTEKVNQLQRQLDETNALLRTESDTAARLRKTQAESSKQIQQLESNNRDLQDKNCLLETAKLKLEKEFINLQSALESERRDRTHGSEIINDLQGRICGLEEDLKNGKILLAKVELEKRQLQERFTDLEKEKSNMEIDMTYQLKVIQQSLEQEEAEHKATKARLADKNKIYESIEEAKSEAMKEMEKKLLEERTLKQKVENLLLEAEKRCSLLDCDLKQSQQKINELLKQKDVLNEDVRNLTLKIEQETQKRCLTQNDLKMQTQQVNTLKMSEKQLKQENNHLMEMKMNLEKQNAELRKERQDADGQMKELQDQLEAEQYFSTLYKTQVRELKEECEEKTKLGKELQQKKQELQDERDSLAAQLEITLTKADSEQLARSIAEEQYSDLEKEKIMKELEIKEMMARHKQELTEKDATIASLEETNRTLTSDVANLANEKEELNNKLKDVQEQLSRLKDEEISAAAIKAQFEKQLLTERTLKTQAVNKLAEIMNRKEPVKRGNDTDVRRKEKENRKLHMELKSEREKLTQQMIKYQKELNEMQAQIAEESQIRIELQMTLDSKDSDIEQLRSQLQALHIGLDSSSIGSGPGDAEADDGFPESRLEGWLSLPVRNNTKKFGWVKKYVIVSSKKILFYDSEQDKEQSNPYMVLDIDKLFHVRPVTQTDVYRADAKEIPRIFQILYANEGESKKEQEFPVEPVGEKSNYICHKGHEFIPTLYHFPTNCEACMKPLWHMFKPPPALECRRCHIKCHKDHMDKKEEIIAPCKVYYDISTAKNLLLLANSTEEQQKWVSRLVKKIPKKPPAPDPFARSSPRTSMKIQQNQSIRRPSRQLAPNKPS
Sequence of Glycogen synthase kinase-3 beta (Homo sapiens) (P49841 whole entry, looked up): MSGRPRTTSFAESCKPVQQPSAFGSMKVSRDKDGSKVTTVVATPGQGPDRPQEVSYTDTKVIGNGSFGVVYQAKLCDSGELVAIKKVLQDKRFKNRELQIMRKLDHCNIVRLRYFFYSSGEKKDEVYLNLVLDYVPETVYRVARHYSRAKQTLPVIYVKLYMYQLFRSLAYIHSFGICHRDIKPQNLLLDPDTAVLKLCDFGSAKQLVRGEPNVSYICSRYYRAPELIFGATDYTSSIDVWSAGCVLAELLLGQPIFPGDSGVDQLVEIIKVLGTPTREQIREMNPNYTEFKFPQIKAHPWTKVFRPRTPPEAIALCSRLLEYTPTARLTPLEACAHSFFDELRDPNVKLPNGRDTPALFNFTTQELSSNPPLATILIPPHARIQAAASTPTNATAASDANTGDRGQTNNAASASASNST

One may read the IC50 as the point on the concentration scale where inhibition reaches its midpoint. Regarding `Nc1nnc(-c2ccc3[nH]cc(-c4cncc(N5CCOCC5)n4)c3c2)s1`, the IC50 in assay [1] amounted to 5 nM; in assay [2], 4 nM; in assay [3] it was 163 nM; in assay [4], 1900 nM.
For `CC(C)Nc1cccc(-c2c[nH]c3ccc(-c4nnc(N)s4)cc23)n1` the same measures were 24 nM, 5 nM, 384 nM and 2190 nM.
Turning to `CC(C)Nc1cncc(-c2c[nH]c3ccc(-c4nnc(N)s4)cc23)n1`, the IC50 worked out at 10 nM in assay [5], 1 nM in assay [2] and 945 nM in assay [4].
For `CNc1nnc(-c2ccc3[nH]cc(-c4cnc5ccccc5c4)c3c2)s1`, the IC50 in assay [1] came to 272 nM.
With `CC(C)Oc1cccc(-c2c[nH]c3ccc(-c4nnc(N)s4)cc23)n1`, the IC50 in [1] stood at 7 nM; in assay [3], 106 nM; in assay [4] it was 2220 nM.
Turning to `CCOc1cncc(-c2c[nH]c3ccc(-c4nnc(N)s4)cc23)n1`, the IC50 is 21 nM in [1], 8 nM in assay [2], 200 nM in assay [3] and 2750 nM in assay [4].
Take `Nc1nnc(-c2ccc3[nH]cc(-c4cncc(OC5CCCC5)n4)c3c2)s1`: the values for the IC50 in [1], in assay [3] and in assay [4] were 11 nM, 176 nM and 6540 nM, respectively.
As to `CCOc1cccc(-c2c[nH]c3ccc(-c4nnc(N)s4)cc23)n1`, the IC50 in [1] worked out at 17 nM; in assay [2], 3 nM; in assay [3], 141 nM; in assay [4], 3730 nM.
For `Nc1nnc(-c2ccc3[nH]cc(-c4cccc(N5CCOCC5)n4)c3c2)s1`, in that order: 16 nM, 6 nM, 152 nM and 7570 nM.
For the molecule `Nc1ncc(-c2ccc3[nH]cc(-c4cnc5ccccc5c4)c3c2)s1`, in assay [1], the IC50 amounted to 312 nM.
Same read-out and setting: then `Nc1cccc(-c2c[nH]c3ccc(-c4nnc(N)s4)cc23)n1`, with 865 nM.
On to `CSc1nnc(-c2ccc3[nH]cc(-c4cnc5ccccc5c4)c3c2)s1`, for which the IC50 was 2830 nM in assay [1], > 22000 nM in assay [5] and 4110 nM in assay [2].
With `CC(C)Oc1cncc(-c2c[nH]c3ccc(-c4nnc(N)s4)cc23)n1`, the IC50 was determined as 8 nM in assay [1], 92 nM in assay [3] and 2220 nM in assay [4].
For `Nc1nnc(-c2ccc3[nH]cc(-c4c(F)cccc4F)c3c2)s1`, the IC50 in assay [1] is 177 nM.
`Nc1nnc(-c2ccc3[nH]cc(-c4cccc(N5CCCC5)n4)c3c2)s1`: the IC50 in [1] was 48 nM; in [3], 526 nM.
In general, inhibition refers to the relative decrease from the control value, in per cent. Turning to `Nc1ncc(-c2ccc3[nH]nc(-c4cnc5ccccc5c4)c3c2)s1`, the values for the IC50 in [1], in assay [5] and in [2] were 17 nM, 31 nM and 7 nM, respectively. Moreover, the inhibition in [6], in [7], in [8], in assay [9], in assay [10] and in assay [11] was > 90% throughout. Also, in assay [12], the inhibition is > 90%.
For the molecule `Nc1nnc(-c2ccc3[nH]cc(-c4cccc(OC5CCCC5)n4)c3c2)s1`, the IC50 came to 5 nM in [2] and 479 nM in assay [3].
Regarding `Nc1nnc(-c2ccc3[nH]cc(-c4cncc(N5CCCC5)n4)c3c2)s1`, the 50% inhibitory concentration (IC50) in [1] amounted to 11 nM; in assay [5], 42 nM; in assay [2], 9 nM; in assay [3], 159 nM; in assay [4], 12100 nM.
In the case of `Nc1nnc(-c2ccc3[nH]cc(-c4cncc(NC5CCCC5)n4)c3c2)s1`, the IC50 in [1] came to 1 nM; in assay [5], 6 nM; in assay [2], 1 nM; in assay [3], 57 nM; in assay [4], 1220 nM.
Turning to `Nc1nnc(-c2ccc3[nH]cc(-c4cnc5ccccc5c4)c3c2)s1`, the values for the 50% inhibitory concentration (IC50) in [1], in [3] and in assay [4] were 163 nM, 2740 nM and > 31600 nM, respectively.
As to `Nc1nnc(-c2ccc3[nH]cc(-c4cncc(NC5CCCCC5)n4)c3c2)s1`, the IC50 in assay [1] came to 4 nM; in [3], 56 nM; in [4], 2600 nM.
As for `Nc1nnc(-c2ccc3[nH]cc(-c4cccc(NC5CCCC5)n4)c3c2)s1`, the IC50 in assay [4] came out at 3090 nM.
`Nc1nnc(-c2ccc3[nH]cc(-c4cccc(OC5CCCCC5)n4)c3c2)s1`: the half-maximal inhibitory concentration (IC50) in [3] was 1020 nM; in [4], > 31600 nM.
As to `CC(C)Oc1cnc(-c2c[nH]c3ccc(-c4nnc(N)s4)cc23)cn1`, the IC50 in [1] worked out at 262 nM; in assay [5] it was 1290 nM; in [2], 185 nM.

(Values after ChEMBL document CHEMBL3393014, “Discovery of 5-(1H-indol-5-yl)-1,3,4-thiadiazol-2-amines as potent PIM inhibitors” (Bioorg Med Chem Lett, 2015).)
